Laboratory results as given in publication PMC5424463, “A strategy based on nucleotide specificity leads to a subfamily-selective and cell-active inhibitor of N ^6-methyladenosine demethylase FTO” (Chemical Science, 2014).

Tests used:
ALKBH5 = target: T1, ALKBH5 (Homo sapiens, UniProt Q6P6C2); test: HPLC-based inhibition assay for ALKBH5, m6A-ssRNA substrate; type: biochemical; conditions: 5-mer m6A-ssRNA substrate
T1 construct: pNIC28-Bsa4 ALKBH5 (encompassing residues 66-292); made in house; host or cells: E. coli BL21 (DE3) Rosetta T1R
Protocol: Figure S4. Enzyme inhibition curves of 12 against FTO and ALKBH5, as determined by a HPLC-based assay using m6A-containing ssRNA substrates. The substrate sequences for the FTO and ALKBH5 assays are 5’-CUUGUCA(m6A)CAGCAGA-3’ and 5’-GG(m6A)CU-3’, […]
respectively, which represents >100-fold selectivity for FTO over ALKBH5.
(1 picture or pasted object on this page, not shown here) […]
chloride) over 18 min, at a flow rate of 1 mL/min at 40°C. The UV detection wavelength was set at 266 nm. The percentage inhibition was estimated based on the peak areas of the m6A-ssRNA substrate and the corresponding demethylated product. For IC50 determination, eight […]
were then calculated from the variation in percentage demethylation at different inhibitor concentrations, using nonlinear regression, with normalized dose-response fit on GraphPad […]
HPLC-based inhibition assays for AlkB and ALKBH2
The assay was modified from previously reported method.[18] A 15-mer m1A-ssDNA substrate with the sequence 5’-AAAGCAG(m1A)ATTCGAA-3 ’ (Yale University, W.M.
Keck Foundation Biotechnology Resource Laboratory) was used in this inhibition assay. The assay was performed in triplicate for each inhibitor, in a final reaction volume of 25 µL. […]

FTO = target: T2, FTO (Homo sapiens, UniProt Q9C0B1); test: HPLC-based inhibition assay for FTO, m3T substrate; type: biochemical; conditions: HPLC-based demethylase assay, m3T substrate; read-out: IC50 (FTO)
T2 construct: The human full length FTO construct used in this study; made in house; host or cells: E. coli BL21 (DE3) Rosetta T1R
Protocol: HPLC-based inhibition assays for FTO
The assay was modified from previously reported method.[17] It is performed in triplicate for each inhibitor, in a final reaction volume of 25 µL. Reaction consisted of FTO (1 µM), 2OG (50 µM), (NH4)2Fe(SO4)2·6H2O (50 µM), L-ascorbate (2 mM), 3-methylthymidine (m3T substrate, 10 µM) in 50 mM HEPES buffer, pH 7.5, and inhibitor at various concentrations (final DMSO concentration not more than 1% v/v of assay mix). The reaction was incubated at 4°C for 1 h, before analysis on a HPLC system. The substrate (m3T) and the demethylated product (thymidine) were separated using a Zorbax C18 column (4.6 mm x 250 mm) with a […]
flow rate of 1 mL/min at room temperature.
The percentage inhibition was estimated based on the peak areas of the 3-methylthymidine substrate and the thymidine product. For IC50 determination, eight different concentrations of […]
the variation in percentage demethylation at different inhibitor concentrations, using nonlinear regression, with normalized dose-response fit on GraphPad Prism 6.0™.
HPLC-based assay for FTO was also performed using an m6A-ssRNA as substrate. The assay was modified from previously reported method.[21] All reaction conditions are as described for the inhibition of m3T demethylation above, except that a 15-mer ssRNA with the sequence 5’-CUUGUCA(m6A)CAGCAGA-3’ (Yale University, W.M. Keck Foundation Biotechnology Resource Laboratory) was used as substrate (10 µM). The reaction was analysed on a bio-inert HPLC system. The m6A-ssRNA substrate and the corresponding demethylated product were separated using a Dionex DNAPac PA200 anion-exchange

T2 sequence (Q9C0B1 whole entry): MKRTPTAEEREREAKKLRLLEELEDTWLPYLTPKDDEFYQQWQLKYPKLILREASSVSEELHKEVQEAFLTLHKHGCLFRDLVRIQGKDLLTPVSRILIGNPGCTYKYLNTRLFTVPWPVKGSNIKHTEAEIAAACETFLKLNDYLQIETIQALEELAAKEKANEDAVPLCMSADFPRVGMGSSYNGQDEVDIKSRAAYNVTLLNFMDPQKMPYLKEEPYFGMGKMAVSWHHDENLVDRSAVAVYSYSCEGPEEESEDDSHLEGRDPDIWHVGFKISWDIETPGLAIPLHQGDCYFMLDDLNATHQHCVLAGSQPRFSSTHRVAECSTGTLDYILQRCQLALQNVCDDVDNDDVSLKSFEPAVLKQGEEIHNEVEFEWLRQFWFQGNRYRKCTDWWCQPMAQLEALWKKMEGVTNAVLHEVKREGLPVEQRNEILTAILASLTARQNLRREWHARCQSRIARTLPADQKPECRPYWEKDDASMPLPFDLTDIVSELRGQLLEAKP
T1 sequence (Q6P6C2 66-292): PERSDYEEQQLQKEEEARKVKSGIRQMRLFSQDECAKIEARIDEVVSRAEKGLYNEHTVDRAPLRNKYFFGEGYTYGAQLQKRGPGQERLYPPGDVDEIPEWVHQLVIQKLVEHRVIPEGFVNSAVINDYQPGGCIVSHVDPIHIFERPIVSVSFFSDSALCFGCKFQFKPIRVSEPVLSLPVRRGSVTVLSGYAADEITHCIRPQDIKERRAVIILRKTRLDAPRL

| Structure (SMILES) | IC50 (ALKBH5) | IC50 (FTO) |
| --- | --- | --- |
| O=C(O)/C=C/C(=O)NNC(=O)c1cnccc1Cc1ccccc1 [Compound 12] | 96.5 µM |  |
| O=C(O)C=CC(=O)NNC(=O)c1cc(Cc2ccccc2)ccn1 [Compound 22] |  | 86.8 µM |
| O=C(O)/C=C/C(=O)NNC(=O)c1ccccn1 [Compound 23] |  | 109 µM |
